According to paper PMC12472621, “Excavating Precursors from Herb Pairs Polygala tenuifolia and Acori tatarinowii: Synthesis and Anticonvulsant Activity Evaluation of 3,4,5-Trimethoxycinnamic Acid (TMCA) Piperazine Amide Derivatives” (Pharmaceuticals, 2025):
Read-outs that look alike come from different tables or passages of the source.

Tests used:
LDH enzyme = assay: In vitro LDH assay; assay type: biochemical
Protocol: Employing the commercial LDH enzyme (Solarbio Life Science, Beijing, China, CAS:9001-60-9, Lot. Document No. 14240222001) includes a colorimetric assay kit designed to assess the synthesized substances’ capacity to suppress the LDH enzyme, using established techniques with slight alterations. In summary, a 96-well microplate was filled with 30 μL of LDH enzyme (300 U/mL) and 70 μL of the inhibitor mixture (0.1 mM in final concentration). Following a 10 min pre-incubation process at ambient temperature, […] of NADH (0.2 mM) was introduced. Subsequently, each well received 40 μL of phosphate buffer (20 mM, pH 6.8), reaching a total volume of 250 μL, followed by a 10 min incubation of the assay plate at 28 °C. Subsequently, […] absorbance was gauged at 340 nm utilizing a SpectraMax 190 Absorbance Microplate Reader (Molecular Devices, San Jose, CA, USA). […] In the initial screening, the level of suppression by the test substances was denoted as a percentage (%). The calculation for the LDH inhibition ratio was as follows:Inhibition (%) = [(Asample − Ablank)/Acontrol] × 100%
Asample denotes the OD340 absorbance of test compound and Ablank is the OD340 absorbance for the blank. Acontrol represents the OD340 absorbance of control.

[1] = Acute neurotoxicity screening (rotarod test); assay type: in vivo, mice; details: male, Kunming, mouse, in vivo, ip, 30 min post-administration, 95% confidence intervals in parentheses
Protocol: (§1) Male Kunming mice (23–28 g) were maintained under controlled conditions with ad libitum access to standard pellet diet and water. Test compounds were formulated immediately prior to administration in normal saline containing 0.5% Tween-80. Our experiment was authorized by the Institutional Animal Care and Use Committee of Shaanxi University of Chinese Medicine (animal ethics certificate number: SUCMDL20210309027).
(§2) Neurotoxicity was assessed via a rotarod test. Mice were trained to maintain balance on a rotating rod (diameter: 4 cm; 24 rpm). Trained animals received i.p. injections of test compounds or reference drugs. At 30 min post-administration, neurologic impairment was defined as failure to remain on the rod for 3 min (≥3 falls within the testing period). Data were used to calculate TD50 values.

mice [2] = assay: Acute neurotoxicity screening (rotarod test); assay type: in vivo; details: i.p., 30 min post-administration, 95% confidence intervals in parentheses
Protocol: as §1, §2

scPTZ-induced seizures [3] = assay: Pentylenetetrazole (PTZ)-induced seizure test (scPTZ); assay type: in vivo; details: 100 mg/kg i.p., PTZ 85 mg/kg s.c., mice
Protocol: as §1
Seizures were induced by subcutaneous (s.c.) administration of PTZ (85 mg/kg in 1% v/v Tween-80/0.9% NaCl), 30 min after compound treatment. This dose produces clonic seizures (≥5 s duration) in 97% of naive mice. Latency to seizure onset was recorded during continuous observation.

[4] = test system: maximal electroshock (MES) induced seizures; assay: Maximal electroshock (MES) test; assay type: in vivo, mice; details: Mus musculus, ip
Source text: as §1
The MES test carried out following the method of Swinyard. A 60 Hz current (50 mA; 0.25 s duration) was delivered via corneal electrodes using a YSD-4G electro convulsion meter (Zhenghua Instruments, Huaibei, China, SN: ZH0056232). […] Test compounds were suspended in an identical vehicle. Protection was defined as abolition of tonic hindlimb extension.

LDH [5] = details: original ligand of the LDH co-crystal complex; cited from earlier work
scPTZ-induced seizures [6] = test system: scPTZ-induced seizures; design: method as in PMID 31539780; details: reference drug; cited from earlier work
LDH [7] = assay: Immunofluorescence staining for LDH in hippocampus; assay type: in vivo; details: hippocampus CA1, PTZ model mice
Protocol: Brain samples were extracted, preserved in 4% paraformaldehyde for a day, and subsequently immersed in a 30% sucrose solution to dehydrate. Post OCT embedding, slices of brain tissue measuring 16 μm in thickness were sliced using a cryostat. Following the permeabilization using 0.5% TritonX-100 and subsequent blocking with 10% goat serum at ambient temperature to remove nonspecific staining, the tissue samples were subjected to overnight incubation at 4 °C with the primary antibody, LDHA (Proteintech (Rosemont, IL, USA), Cat No. 19987-1-AP, Lot: 00106920, rabbit anti-rat 1:200). On the next day, the slides underwent incubation using a secondary antibody. The slides underwent counterstaining using DAPI. […] slices were examined and visualized utilizing the VS200-BU Slide Scanner (Olympus Corporation, Tokyo, Japan).

[8] = test system: neurons in CA1 and CA3 regions of the hippocampus; assay: Silver staining of hippocampal tissue; assay type: in vivo; details: PTZ model mice, compared with PTZ group
Protocol: Following the creation of the PTZ model, a modified version of the silver impregnation staining technique was applied for silver staining, enabling the observation of changes in neuronal fibers and synapses throughout diseases. Brain tissue slices from each mouse, encased in paraffin, underwent deparaffinization using xylene and absolute ethanol, followed by a treatment in acidic formaldehyde, and then incubation in a glycine–silver mixture. Following the application of a reducing solution for staining, the samples were analyzed using an optical microscope. Against a yellow backdrop, nerve cells’ axons, dendrites, collagen fibers, and neurofibrillary tangles were colored in dark brown or black.

mice [9] = test system: mice; design: method as in PMID 31539780; details: reference drug; cited from earlier work

Compound	LDH Inhibition Ratio (0.1 mM) (LDH enzyme)	TD50 at 30 min [1]	TD50 (mice [2])	SCPTZ Latent Time (100 mg/kg, s) (scPTZ-induced seizures [3])	SCPTZ Protective Ratio (100 mg/kg) (scPTZ-induced seizures [3])	responders at 100 mg/kg ([4]; 100 mg/kg i.p., mice, 0.5 h, read-out: MES model, protected mice/total mice, 0.5 h (converted))	responders at 100 mg/kg ([4]; 100 mg/kg i.p., mice, 1 h, read-out: MES model, protected mice/total mice, 1 h (converted))	responders at 100 mg/kg ([4]; 100 mg/kg i.p., mice, 2 h, read-out: MES model, protected mice/total mice, 2 h (converted))	responders at 100 mg/kg ([4]; 100 mg/kg i.p., mice, 3 h, read-out: MES model, protected mice/total mice, 3 h (converted))	ED50 ([4]; mice, 95% confidence intervals in parentheses)	IC50 (LDH [5])	SCPTZ Latent Time (100 mg/kg, s) (scPTZ-induced seizures [6])	SCPTZ Protective Ratio (100 mg/kg) (scPTZ-induced seizures [6])	LDH immunolabelling intensity (LDH [7])	silver staining, neurons in hippocampal CA1 and CA3 [8]	responders at 100 mg/kg ([4]; 0.5 h, read-out: MES model, protected mice/total mice, 0.5 h)	responders at 100 mg/kg ([4]; 1 h, read-out: MES model, protected mice/total mice, 1 h)	responders at 100 mg/kg ([4]; 2 h, read-out: MES model, protected mice/total mice, 2 h)	responders at 100 mg/kg ([4]; 3 h, read-out: MES model, protected mice/total mice, 3 h)	TD50 (mice [9])
C/C=C/c1ccc(OC(=O)CCCN2CCN(C(=O)/C=C/c3cc(OC)c(OC)c(OC)c3)CC2)c(OC)c1 [A3, methoxy-4-((E)-prop-1-en-1-yl)phenyl 4-(4-((E)-3-(3,4,5-trimethoxyphenyl)acryloyl)piperazin-1-yl)butanoate]	37.6 ± 8.1%	443 mg/kg	weak neurotoxicity	222.0 ± 14.7 s	1/4	100%	75%	50%	25%	73.3 mg/kg	–	–	–	–	–	–	–	–	–	–
O=C1N[C@](c2ccc(N3CCOCC3)cc2)(c2ccsc2)CC(O)=C1Sc1ccccc1Cl [GEN-140]	–	–	–	–	–	–	–	–	–	–	3 nM	–	–	–	–	–	–	–	–	–
CC(C)(C)C(O)/C=C/c1ccc2c(c1)OCO2 (stereo not drawn) [STP, Stiripentol, reference compound]	46.1 ± 6.2%	–	–	–	–	–	–	–	–	–	–	269.5 ± 19.8 s	2/4	lower than the values found in the PTZ group	alleviated symptoms	100%	50%	25%	0%	161.7 (146.2–256.2) mg/kg
